This is an account of results in patent publication US20220104468A1, “MODULATION OF LC3-ASSOCIATED ENDOCYTOSIS PATHWAY AND GENETICALLY MODIFIED NON-HUMAN ANIMALS AS A MODEL OF NEUROINFLAMMATION AND NEURODEGENERATION” (St. Jude Children's Research Hospital, priority 2019, published 2022).

For test [1], the system named is Atg16L^ΔWD mice. As to the kind of experiment: Novel object recognition (NOR) after MCC950 treatment. The settings on record: MCC950 8 weeks, trending towards wild-type littermates. The test is classed as in vivo, mouse. On the procedure: Novel object recognition (NOR) was performed in an open-field box (40 cm×40 cm). Mice were allowed to acclimate to the testing room for 48h. For habituation, mice were allowed to explore the open-field for 15 min per day for two days. Mice were then exposed to two identical objects for 10 min on the day of testing. 2h later a novel object was introduced, and mice were allowed to explore for 5 min during the test phase. The time spent exploring each object was quantified manually. Novel object preference (%) and the discrimination index ((time with novel)/(novel+familiar)*100) were calculated for each mouse.
(§1) Mice with established disease were treated for 8-weeks with either a vehicle (placebo) control or MCC950 (Invivogen) as reported previously (Gordon et al. 2018 Science Translational Medicine 10(465)). In brief, MCC950 was suspended in 100% DMSO and titrated to a working dose using sterile water. The final concentration of DMSO in the injection was <1%. Matching solution without MCC950 was used as the vehicle (placebo). Mice were injected every 3 days for 8-weeks at a dose of 10 mg/kg via intraperitoneal injection.

The subject of test [2] is Atg16L^ΔWD mice. As to the kind of experiment: Brain pathology by immunofluorescence/TUNEL after 8 weeks of MCC950 in mice with established disease. Type of test: in vivo, mouse. The settings on record: MCC950 10 mg/kg i.p. every 3 days for 8 weeks. On the procedure: Inflammasome inhibition has recently been proposed as putative therapeutic approach that reduces neuroinflammation and Tau phosphorylation (PMID: 31748742). Thus, Atg16L WD-domain deficient mice (Atg16L^ΔWD mice) with established disease (starting at 20 months of age) and behavioral impairment, as measured by both impaired spontaneous alternation and NOR (FIGS. 19A-19B), were treated with the brain-penetrant inflammasome inhibitor MCC950. […] However, no difference in Aβ deposition was observed between placebo and MCC950-treated mice (FIG. 19E).
Atg16^ΔWD mice were generated by deletion of the WD-domain of Atg16L, as previously described (Rai et al 2018(online) Autophagy 15(4)599-612). In brief, 2 stop codons were inserted into exon 6 of murine Atg16L1 immediately after glutamate E230 to preserve binding sites for WIPI2 (required for canonical autophagy) but prevent translation of the linker and WD-domain. Mice were produced and maintained on a mixed 129, C57BL/6 background. Unless otherwise noted, all experiments were performed on mixed sex cohorts at 2 years of age. Mice treated with MCC950 or placebo were mixed sex cohorts, 20 months of age at time of treatment onset and were treated for 8-weeks. The genetic backgrounds of mice used were assessed at the DartMouse™ Speed Congenic Core Facility at the Geisel School of Medicine at Dartmouth. DartMouse uses the Illumina, Inc. (San Diego, Calif.) Infinium Genotyping Assay to interrogate a custom panel of 5307 SNPs spread throughout the genome. The raw SNP data was analyzed using DartMouse's SNaP-Map™ and Map-Synth™ software, allowing the determination for each mouse of the genetic background at each SNP location. Background strain percentage was subsequently compared against markers of disease pathology to evaluate any influence stemming from variations in background (FIG. 18).
For preparation of brain tissue see “Preparation of brain samples” below. Slides were subjected to antigen retrieval using 1% sodium citrate boiling for 20 min followed by 3× PBS washing. Slides were blocked in 0.5% BSA in PBS. Antibody staining was carried out as described above. Following final washing, slides were mounted using ProLong Diamond Anti-Fade mounting media with DAPI.
Image analysis for relative Aβ, Iba1, and phospho-Tau staining was achieved by quantifying the mean fluorescent intensity (MFI) of either Iba1 or phospho-Tau signal using NIS-elements. Analysis and quantification of microglial morphology was achieved using Slidebook 6 software. Morphological state was determined by measuring cell diameter following 3D reconstruction and confirmed by manual counting/analysis of microglia shape per defined field across multiple areas of each slide. […]

Test [3] has as its system Atg16L^ΔWD mice. The test is described as follows: Y-maze spontaneous alternation after MCC950 treatment. The test is classed as in vivo, mouse. The settings on record: MCC950 8 weeks, trending towards wild-type littermates. On the procedure: For Y-maze spontaneous alternation analysis, mice were housed in the testing room and allowed to acclimate for 48h. The Y-maze test consisted of a single 5 min trial per mouse. Spontaneous Alternation [%] was defined as consecutive entries in 3 different arms (ABC), divided by the number of possible alternations (total arm entries minus 2). Mice with less than 5 arm entries during the 5 min trial were excluded from the analysis.
as §1

Test [4] has as its system BV2 murine microglial cells expressing GFP-LC3. The test is described as follows: LC3 recruitment/co-localization to β-amyloid in GFP-LC3 BV2 cells (imaging). The settings on record: parental BV2 GFP-LC3 cells, TAMRA-labeled oligomeric peptide. Type of test: cell-based. On the procedure:
(§2) In an attempt to delineate the discrepancies in β-amyloid accumulation in the animal models presented above and the role of the autophagy proteins in this process, BV2 murine microglial cells expressing GFP-LC3 that are deficient in FIP200, ATG5, or Rubicon were engineered using CRISPR/Cas9 (FIG. 3A). Cells were cultured in the presence of neurotoxic oligomeric AP 1-42 labeled with TAMRA.
(§3) Both labeled and unlabeled Ab1-42 was purchased in lyophilized form and resuspended according to the manufacturer's recommendation at a concentration of 100 μM (Anaspec). In brief, Ab1-42 was resuspended to 5 mM in DMSO and then adjusted to 100 μM using DMEM/F12 culture media. Oligomerization was allowed to occur for 24h at 4° C. prior to addition to cells at 1 μM unless otherwise indicated.
For all non-live cell-based imaging, cells were cultured in 4-well chamber slides (Ibidi) and were fixed and stained as indicated. In brief, cells were fixed with 4% PFA for 10 min followed by permeabilization using 200 μg/ml digitonin for 10 min. Cells were blocked in 0.5% BSA in PBS for 30 min prior to staining with primary antibodies overnight at 4° C. Cells were then washed 3× in PBS and then stained with the indicated fluorescent secondary antibodies for 30 min. Cells were subsequently washed 3× with PBS and post-fixed in 1% PFA for 10 min prior to imaging. […]

In another test the test system is BV2 cells. As to the kind of experiment: Pro-inflammatory gene expression by qPCR after oligomeric Aβ1-42. Type of test: cell-based, murine. The settings on record: BV2 cells treated with Aβ1-42. How it is done:
Similarly, the effects of Aβ1-42 on microglia were examined. As expected, BV2 cells treated with Aβ1-42 had elevated pro-inflammatory gene expression, including IL-1β, IL-6, CCL5, and TNFα as reported (Pan et al. (2011) Mol Neurodegener 6:45) and consistent with human disease.
as §3
Total RNA was isolated from cells or tissue using the RNeasy Kit (Qiagen) according to the manufacturer's instructions. First-strand synthesis was performed using M-MLV reverse transcriptase (Invitrogen). Realtime PCR was performed using SYBR GREEN PCR master mix (Applied Biosystems) in an Applied Biosystems 7900HT thermocycler using SyBr Green detection protocol as outlined by the manufacturer using the following PCR conditions: 50° C. for 2 min, 95° C. for 10 min, and 40 cycles of 95° C. for 15s and 60° C. for 1 min. mRNA was normalized to actin allowing for comparison of mRNA levels. Please see key reagents table for qPCR primer sequences.
In general terms: Quantitative PCR measures a nucleic acid by following its amplification.

Test [5] relates to BV2 microglia. As to the kind of experiment: Membrane-associated GFP-LC3 by flow cytometry. The test is classed as cell-based, murine. The conditions noted are these: parental BV2 microglia, latrunculin A versus vehicle. How it is done:
as §2
To quantify membrane association of GFP-LC3, cells were harvested and permeabilized using 200 μg/ml digitonin for 15 min on ice. Cytosolic GFP-LC3 was removed by washing cells 5× in cold PBS. Cells were then resuspended in 0.5% BSA in PBS for analysis by flow cytometry as described above.
(§4) To delineate between phagocytosis and endocytosis, cells were treated as indicated with the phagocytic inhibitor latrunculin A. Cells were pre-treated for 1 h prior to the addition of target substrates. The following control substrates were used, zymosan (phagocytosis) and dextran (endocytosis), both were fluorescently labeled as indicated. Co-incubation with specific substrates was carried out at 37° C. for 3h. Cells were either fixed for imaging or analyzed by flow cytometry as described above respectively.
Background: Flow cytometry measures light scatter and fluorescence of single cells or particles in a stream.

The subject of test [6] is BV2 microglia. As to the kind of experiment: Phagocytosis versus endocytosis substrate uptake with latrunculin A (flow cytometry, imaging). Type of test: cell-based, murine. The conditions noted are these: 50 μM latrunculin A. On the procedure: as §2
For all uptake assays, cells were analyzed without fixation. For membrane-associated GFP-LC3 analysis, cells were processed as described below. For brain infiltrating monocytes, cells were isolated as described using the Neural Tissue Dissociation Kit (Miltenyi). Primary cells were fixed, permeabilized, and stained using the Cyto Fix/Perm Staining Kit (BD Bioscience) and the indicated, conjugated primary antibodies. For all experiments, cells were analyzed using a Sony SP6800 Spectral Analyzer (Sony). All analyses were performed using FlowJo v10.4 (Tree Star). Fluorescent compensation was performed using BD compensation beads (BD Bioscience).
as §4

With `CC(C)(O)c1coc(S(=O)(=O)NC(=O)Nc2c3c(cc4c2CCC4)CCC3)c1` [MCC950], the “behavioral and memory capacity in NOR (novel object preference, discrimination index)” value in the test on Atg16L^ΔWD mice [1] is recorded as “restoration”. Further, the “microglial activation (Iba1 staining, hippocampus)” value in the test with Atg16L^ΔWD mice [2] (20 months at onset, compared to placebo) is recorded as “reduced”. Also, in the test on Atg16L^ΔWD mice [2] (versus placebo), the “Aβ deposition (hippocampus)” value is “no difference”; the “Tau phosphorylation (S199/202, CA3-field)” value is given as “massive reduction”; the “neurodegeneration as measured by TUNEL staining (CA3-field)” value is “massive reduction”. Moreover, the “behavioral and memory capacity in the Y-maze (spontaneous alternation)” value in the test on Atg16L^ΔWD mice [3] is recorded as “restoration”.

As to “Aβ1-42: neurotoxic oligomeric β-amyloid 1-42 peptide, labeled or unlabeled (Anaspec)”, in test [4], the “co-localization/recruitment of LC3 to the β-amyloid” value was “induced rapid co-localization”. In the test on BV2 cells, the “pro-inflammatory gene expression, including IL-1β, IL-6, CCL5, and TNFα” value is given as “elevated”.

Turning to `C/C1=C/C(=O)O[C@@H]2C[C@@H](CC[C@H](C)/C=C\C=C\CC1)O[C@@](O)([C@@H]1CSC(=O)N1)C2` [latrunculin A], the “association of LC3 to endosomal membranes in response to β-amyloid” value in the test with BV2 microglia [5] is on record as “did not alter”. The “uptake of the endocytic substrate dextran” value with BV2 microglia [6] (dextran 500 ng/ml) was “had no effect”. The “internalization of the phagocytic substrate zymosan” value in the test on BV2 microglia [6] (zymosan 4:1 particle:cell) is “prevented the internalization”. The “uptake of β-amyloid” value in the test on BV2 microglia [6] (β-amyloid 1 μM) is given as “had no effect”.
